Where two headings read alike, the source gives them in different places.
Key:
GLP-1R = GLP-1R (Homo sapiens, UniProt P43220); experiment: GLP-1R activation: cAMP increase in CHO cells stably expressing GLP-1R; type: cell-based; conditions: read-out: EC50
[1] = Microsomal stability, human liver microsomes (predicted hepatic clearance); conditions: predicted from in vitro microsomal stability data
[2] = cAMP increase, CHO cells stably expressing GLP-1R, 10 point dose response, 30 minutes incubation

Sequence of GLP-1R (P43220 24-463): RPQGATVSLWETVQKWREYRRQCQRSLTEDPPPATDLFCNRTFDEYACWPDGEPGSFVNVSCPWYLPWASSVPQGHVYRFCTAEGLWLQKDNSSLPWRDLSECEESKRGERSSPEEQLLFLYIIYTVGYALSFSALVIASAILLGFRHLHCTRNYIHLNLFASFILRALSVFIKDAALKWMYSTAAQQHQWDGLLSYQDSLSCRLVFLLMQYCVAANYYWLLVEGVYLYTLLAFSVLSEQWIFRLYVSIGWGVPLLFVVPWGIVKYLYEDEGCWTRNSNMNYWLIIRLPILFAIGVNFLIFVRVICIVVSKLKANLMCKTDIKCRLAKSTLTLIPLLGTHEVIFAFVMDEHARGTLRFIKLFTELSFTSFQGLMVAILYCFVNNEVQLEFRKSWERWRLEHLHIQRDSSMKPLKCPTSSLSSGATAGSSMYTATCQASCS

SMILES: N#Cc1ccc(COc2nccc(-c3cc(F)c(Cc4nc5c(F)cc(C(=O)O)cc5n4CC4(CF)CC4)cc3F)n2)c(F)c1 [Example 412, 2-(4-(2-((4-cyano-2-fluorobenzyl)oxy)pyrimidin-4-yl)-2,5-difluorobenzyl)-4-fluoro-1-((1-(fluoromethyl)cyclopropyl)methyl)-1H-benzo[d]imidazole-6-carboxylic acid]
- EC50 (GLP-1R; [2]): 0.33 nM
- Predicted Hepatic Clearance (Pred. Cl.) [1]: <1.83 mL/min/kg

SMILES: N#Cc1ccc(COc2cccc(-c3ccc(Cc4nc5ncc(C(=O)O)cc5n4CC4(CF)CC4)c(F)c3)n2)c(F)c1 [Example 92, 2-(4-(6-((4-cyano-2-fluorobenzyl)oxy)pyridin-2-yl)-2-fluorobenzyl)-1-((1-(fluoromethyl)cyclopropyl)methyl)-1H-imidazo[4,5-b]pyridine-6-carboxylic acid]
- EC50 (GLP-1R): 2.64 nM
- Predicted Hepatic Clearance (Pred. Cl.) [1]: 3.17 mL/min/kg

SMILES: COCCn1c(Cc2cc(F)c(-c3cccc(OCc4ccc(C)cc4)n3)cc2F)nc2ccc(C(=O)O)cc21 [Example 814]
- EC50 (GLP-1R; [2]): 2.14 nM
- Predicted Hepatic Clearance (Pred. Cl.) [1]: 6.17 mL/min/kg

SMILES: N#Cc1cc(F)c(COc2nccc(-c3cc(F)c(Cc4nc5c(F)cc(C(=O)O)cc5n4C[C@@H]4CCO4)cc3F)n2)cc1F [Example 677]
- EC50 (GLP-1R; [2]): 0.06 nM
- Predicted Hepatic Clearance (Pred. Cl.) [1]: 1.83 mL/min/kg

SMILES: COCCn1c([C@@H](C)c2ccc(-c3cccc(OCc4ccc(C#N)cc4F)n3)cc2)nc2ccc(C(=O)O)cc21 (racemic) [Example 447, 2-(1-(4-(6-((4-cyano-2-fluorobenzyl)oxy)pyridin-2-yl)phenyl)ethyl)-1-(2-methoxyethyl)-1H-benzo[d]imidazole-6-carboxylic acid]
- EC50 (GLP-1R; [2]): 1100 nM
- Predicted Hepatic Clearance (Pred. Cl.) [1]: 5 mL/min/kg

SMILES: N#Cc1ccc(COc2cccc(-c3ccn(Cc4nc5ccc(C(=O)O)cc5n4CC4(CF)CC4)c(=O)c3)n2)c(F)c1 [Example 424, 2-((6-((4-cyano-2-fluorobenzyl)oxy)-2′-oxo-[2,4′-bipyridin]-1′(2′H)-yl)methyl)-1-((1-(fluoromethyl)cyclopropyl)methyl)-1H-benzo[d]imidazole-6-carboxylic acid]
- EC50 (GLP-1R; [2]): 15.7 nM
- Predicted Hepatic Clearance (Pred. Cl.) [1]: 2.33 mL/min/kg

SMILES: COC(Cn1c(Cc2ccc(-c3cccc(OCc4ccc(C#N)cc4F)n3)cc2F)nc2ccc(C(=O)O)cc21)C(=O)O (single isomer, unassigned) [Example 332, 1-(2-carboxy-2-methoxyethyl)-2-(4-(6-((4-cyano-2-fluorobenzyl)oxy)pyridin-2-yl)-2-fluorobenzyl)-1H-benzo[d]imidazole-6-carboxylic acid]
- EC50 (GLP-1R; [2]): 120 nM
- Predicted Hepatic Clearance (Pred. Cl.) [1]: <1.83 mL/min/kg

SMILES: N#Cc1ccc(COc2cccc(-c3cc(F)c(Cc4nc5ccc(C(=O)O)cc5n4CC45COCC4C5)cc3F)n2)c(F)c1 (stereo not drawn) [Example 704]
- EC50 (GLP-1R; [2]): 0.98 nM
- Predicted Hepatic Clearance (Pred. Cl.) [1]: 1.83 mL/min/kg

SMILES: COCCn1c(Cc2cc(F)c(-c3ccc(F)c(OCc4ccc(C#N)cc4F)n3)cc2F)nc2c(F)cc(C(=O)O)cc21 [Example 764]
- EC50 (GLP-1R; [2]): 0.76 nM
- Predicted Hepatic Clearance (Pred. Cl.) [1]: 3.17 mL/min/kg

SMILES: COCCn1c(Cc2c(F)cc(-c3cccc(OCc4ccc(C#N)cc4F)n3)cc2F)nc2ccc(C(=O)O)cc21 [Example 39, 2-(4-(6-((4-cyano-2-fluorobenzyl)oxy)pyridin-2-yl)-2,6-difluorobenzyl)-1-(2-methoxyethyl)-1H-benzo[d]imidazole-carboxylic acid]
- EC50 (GLP-1R; [2]): 8.79 nM
- Predicted Hepatic Clearance (Pred. Cl.) [1]: <1.83 mL/min/kg

SMILES: CO[C@H]1COC[C@H]1n1c(Cc2cc(F)c(-c3cccc(OCc4ccc(C#N)cc4F)n3)cc2F)nc2ccc(C(=O)O)cc21 (single isomer, unassigned) [Example 890, 2-(4-(6-((4-cyano-2-fluorobenzyl)oxy)pyridin-2-yl)-2,5-difluorobenzyl)-1-(cis-4-methoxytetrahydrofuran-3-yl)-1H-benzo[d]imidazole-6-carboxylic acid]
- EC50 (GLP-1R; [2]): 0.49 nM
- Predicted Hepatic Clearance (Pred. Cl.) [1]: 5.17 mL/min/kg

SMILES: O=C(O)c1cc(F)c2nc(Cc3cc(F)c(-c4ccc(F)c(OCc5ccc(C(F)F)cc5F)n4)cc3F)n(C[C@@H]3CCO3)c2c1 [Example 767]
- EC50 (GLP-1R; [2]): 0.51 nM
- Predicted Hepatic Clearance (Pred. Cl.) [1]: 1.83 mL/min/kg

SMILES: COCCn1c(Cc2cc(F)c(-c3ccc(F)c(OCc4ccc(C(F)F)cc4F)n3)cc2F)nc2c(F)cc(C(=O)O)cc21 [Example 762]
- EC50 (GLP-1R; [2]): 0.9 nM
- Predicted Hepatic Clearance (Pred. Cl.) [1]: 1.83 mL/min/kg

SMILES: COCCn1c(Cc2ccc(-c3ccnc(OCc4ccc(C#N)cc4OC)n3)cc2F)nc2ccc(C(=O)O)cc21 [Example 112, 2-(4-(2-((4-cyano-2-methoxybenzyl)oxy)pyrimidin-4-yl)-2-fluorobenzyl)-1-(2-methoxyethyl)-1H-benzo[d]imidazole-6-carboxylic acid]
- EC50 (GLP-1R; [2]): 3.76 nM
- Predicted Hepatic Clearance (Pred. Cl.) [1]: 9.17 mL/min/kg

SMILES: COCCn1c(Cc2cc(F)c(-c3cccc(OCc4cccc(-c5ncccn5)c4)n3)cc2F)nc2ccc(C(=O)O)cc21 [Example 909]
- EC50 (GLP-1R; [2]): 2.25 nM
- Predicted Hepatic Clearance (Pred. Cl.) [1]: 3.67 mL/min/kg

SMILES: N#Cc1ccc(COc2cccc(-c3ccc(Cc4nc5ccc(C(=O)O)cc5n4Cc4ccon4)c(F)c3)n2)c(F)c1 [Example 484, 2-(4-(6-((4-cyano-2-fluorobenzyl)oxy)pyridin-2-yl)-2-fluorobenzyl)-1-(isoxazol-3-ylmethyl)-1H-benzo[d]imidazole-6-carboxylic acid]
- EC50 (GLP-1R; [2]): 1.06 nM
- Predicted Hepatic Clearance (Pred. Cl.) [1]: 3.45 mL/min/kg

SMILES: CC(=O)N1C[C@H](F)C[C@@H]1Cn1c(Cc2cc(F)c(-c3cccc(OCc4ccc(C#N)cc4F)n3)cc2F)nc2ccc(C(=O)O)cc21 [Example 691]
- EC50 (GLP-1R): 0.06 nM
- Predicted Hepatic Clearance (Pred. Cl.) [1]: 4.17 mL/min/kg

SMILES: COCCn1c(Cc2ccc(-c3cccc(OCc4ccc(C#N)cc4F)n3)c(C(F)(F)F)c2)nc2ccc(C(=O)O)cc21 [Example 34, 2-(4-(6-((4-cyano-2-fluorobenzyl)oxy)pyridin-2-yl)-3-(trifluoromethyl)benzyl)-1-(2-methoxyethyl)-1H-benzo[d]imidazole-carboxylic acid]
- EC50 (GLP-1R; [2]): 2180 nM
- Predicted Hepatic Clearance (Pred. Cl.) [1]: 9.83 mL/min/kg

SMILES: COCCn1c(Cc2cc(F)c(-c3cccc(OCc4ccc(C(F)(F)F)cn4)n3)cc2F)nc2ccc(C(=O)O)cc21 [Example 868]
- EC50 (GLP-1R; [2]): 5.48 nM
- Predicted Hepatic Clearance (Pred. Cl.) [1]: 3.5 mL/min/kg

SMILES: COCC1(Cn2c(Cc3cc(F)c(-c4cccc(OCc5ccc(C#N)cc5F)n4)cc3F)nc3ccc(C(=O)O)cc32)CCCO1 (stereo not drawn) [Example 652]
- EC50 (GLP-1R; [2]): 8.79 nM
- Predicted Hepatic Clearance (Pred. Cl.) [1]: 8 mL/min/kg

SMILES: N#Cc1cc(F)c(COc2ncc(F)c(-c3cc(F)c(Cc4nc5ccc(C(=O)O)cc5n4C[C@@H]4CCO4)cc3F)n2)cc1F [Example 878]
- EC50 (GLP-1R; [2]): 0.78 nM
- Predicted Hepatic Clearance (Pred. Cl.) [1]: 8.83 mL/min/kg

SMILES: COC(=O)N1CC(Cn2c(Cc3cc(F)c(-c4cccc(OCc5ccc(C#N)cc5F)n4)cc3F)nc3ccc(C(=O)O)cc32)(OC)C1 [Example 824]
- EC50 (GLP-1R; [2]): 197 nM
- Predicted Hepatic Clearance (Pred. Cl.) [1]: 7.67 mL/min/kg

SMILES: COCCn1c(Cc2ccc(-c3ccc(F)c(OCc4ccc(C#N)cc4F)n3)cc2F)nc2ccc(C(=O)O)cc21 [Example 87, 2-(4-(6-((4-cyano-2-fluorobenzyl)oxy)-5-fluoropyridin-2-yl)-2-fluorobenzyl)-1-(2-methoxyethyl)-1H-benzo[d]imidazole-6-carboxylic acid]
- EC50 (GLP-1R; [2]): 5.66 nM
- Predicted Hepatic Clearance (Pred. Cl.) [1]: <1.83 mL/min/kg

SMILES: COCCn1c(Cc2ccc(-c3cccc(OCc4ccc(C#N)cc4F)n3)cc2F)nc2ccc(C(=O)O)c(F)c21 [Example 364, 2-(4-(6-((4-cyano-2-fluorobenzyl)oxy)pyridin-2-yl)-2-fluorobenzyl)-7-fluoro-1-(2-methoxyethyl)-1H-benzo[d]imidazole-6-carboxylic acid]
- EC50 (GLP-1R; [2]): 1.76 nM
- Predicted Hepatic Clearance (Pred. Cl.) [1]: 3.83 mL/min/kg

SMILES: COc1cc(C#N)ccc1COc1nccc(-c2ccc(Cc3nc4ccc(C(=O)O)nc4n3CC3(CF)CC3)cc2F)n1 [Example 322, 2-(4-(2-((4-cyano-2-methoxybenzyl)oxy)pyrimidin-4-yl)-3-fluorobenzyl)-3-((1-(fluoromethyl)cyclopropyl)methyl)-3H-imidazo[4,5-b]pyridine-5-carboxylic acid]
- EC50 (GLP-1R; [2]): 0.58 nM
- Predicted Hepatic Clearance (Pred. Cl.) [1]: 12.3 mL/min/kg

SMILES: N#CCC1(Cn2c(Cc3ccc(-c4ncc(F)c(OCc5ccc(C#N)cc5F)n4)c(F)c3)nc3ccc(C(=O)O)cc32)CC1 [Example 127, 2-(4-(4-((4-cyano-2-fluorobenzyl)oxy)-5-fluoropyrimidin-2-yl)-3-fluorobenzyl)-1-((1-(cyanomethyl)cyclopropyl)methyl)-1H-benzo[d]imidazole-6-carboxylic acid]
- EC50 (GLP-1R; [2]): 0.34 nM
- Predicted Hepatic Clearance (Pred. Cl.) [1]: 6.7 mL/min/kg

SMILES: COCCn1c(Cc2ccc(-c3cccc(OCc4ccc(C#N)cc4F)n3)cc2S(C)(=O)=O)nc2ccc(C(=O)O)cc21 [Example 387, 2-(4-(6-((4-cyano-2-fluorobenzyl)oxy)pyridin-2-yl)-2-(methylsulfonyl)benzyl)-1-(2-methoxyethyl)-1H-benzo[d]imidazole-6-carboxylic acid]
- EC50 (GLP-1R; [2]): 504 nM
- Predicted Hepatic Clearance (Pred. Cl.) [1]: 8.3 mL/min/kg

SMILES: COCCn1c(Cc2ccc(-c3cccc(OCc4ccc(C#N)cc4F)n3)nc2)nc2ccc(C(=O)O)cc21 [Example 43, 2-{[6-[6-[(4-cyano-2-fluoro-phenyl)methoxy]-2-pyridyl]-3-pyridyl]methyl}-3-(2-methoxyethyl)benzimidazole-5-carboxylic acid]
- EC50 (GLP-1R; [2]): 163 nM
- Predicted Hepatic Clearance (Pred. Cl.) [1]: 5.83 mL/min/kg

SMILES: N#CCC1(Cn2c(Cc3ccc(-c4ccnc(OCc5ccc(C#N)cc5F)n4)cc3F)nc3ccc(C(=O)O)cc32)CC1 [Example 353, 2-(4-(2-((4-cyano-2-fluorobenzyl)oxy)pyrimidin-4-yl)-2-fluorobenzyl)-1-((1-(cyanomethyl)cyclopropyl)methyl)-1H-benzo[d]imidazole-6-carboxylic acid]
- EC50 (GLP-1R; [2]): 1.67 nM
- Predicted Hepatic Clearance (Pred. Cl.) [1]: <1.83 mL/min/kg

SMILES: O=C(O)c1ccc2nc(Cc3cc(F)c(-c4cccc(OCc5ccc(C(F)F)cc5F)n4)cc3F)n(CC34CC(CO3)C4)c2c1 [Example 670]
- EC50 (GLP-1R; [2]): 0.51 nM
- Predicted Hepatic Clearance (Pred. Cl.) [1]: 3.17 mL/min/kg
